The subject of assay [1] is light chain/serine protease domain (SPD). Kind of assay: Binding of biotinylated peptides to captured recombinant FSAP light chain/SPD. Set-up: species or system human. The following applies: peptide 1 μM; triplicate wells (Fig 2E). The protocol: Figure 2 NNKC9/41 interacts with the NTR of pro-FSAP: (A) To determine peptide binding to pro-FSAP, wells were coated with 2 μg/mL pro-FSAP and biotinylated NNKC9/41 and NNK11/189 and their respective scrambled controls were added in different concentration (0–5 μM). Peroxidase-labeled streptavidin was used to detect peptide binding. (B) Same procedure as in (A) except that different proteins were immobilized and biotinylated NNKC9/41 (0–30 μM) was added and its binding was measured. (C) Schematic structure of pro-FSAP with the heavy chain consisting of an NTR, three EGF domains, and a kringle domain, followed by the light chain harboring the serine protease domain (SPD). The binding domains of antibodies used in this study are indicated. (D) Recombinant complete heavy chain (heavy) and truncated heavy chain variants ΔNTR, ΔEGF1, ΔEGF2, ΔEGF3, and ΔKringle were expressed in bacteria and analyzed by sodium dodecyl sulfate poly(acrylamide) gel electrophoresis (SDS-PAGE) followed by Coomassie staining. […] Biotinylated NNKC9/41 or the scrambled control peptide was added at 1 μM and peptide binding was measured with peroxidase-linked streptavidin. […]
Wells were coated with anti-FSAP polyclonal antibodies (5 μg/mL). […] Subsequently, the plates were washed, and bound peptides were detected with peroxidase-coupled streptavidin. […]

The target of a further assay is T1, pro-FSAP in human plasma (Homo sapiens, UniProt Q14520).
T1 construct: from tissue; host or cells: human hirudin or citrate plasma from healthy donors, diluted 1:12
T1 sequence (Q14520 24-560): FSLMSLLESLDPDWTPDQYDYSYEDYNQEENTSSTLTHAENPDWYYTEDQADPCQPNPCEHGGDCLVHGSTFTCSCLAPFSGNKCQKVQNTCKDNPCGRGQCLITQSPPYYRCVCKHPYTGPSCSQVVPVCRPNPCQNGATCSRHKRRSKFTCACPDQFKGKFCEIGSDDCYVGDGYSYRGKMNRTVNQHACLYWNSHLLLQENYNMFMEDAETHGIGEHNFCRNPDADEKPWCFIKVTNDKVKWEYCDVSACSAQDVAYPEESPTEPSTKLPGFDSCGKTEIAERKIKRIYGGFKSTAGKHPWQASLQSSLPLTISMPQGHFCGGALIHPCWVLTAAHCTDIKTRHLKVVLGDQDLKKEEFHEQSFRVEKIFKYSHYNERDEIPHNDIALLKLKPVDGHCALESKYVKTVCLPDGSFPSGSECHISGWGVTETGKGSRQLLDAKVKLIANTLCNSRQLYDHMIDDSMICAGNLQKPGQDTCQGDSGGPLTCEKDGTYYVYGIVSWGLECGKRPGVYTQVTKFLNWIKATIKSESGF
Kind of assay: Formation of FSAP–alpha2-antiplasmin complexes in plasma. Format: biochemical. The following applies: hirudin plasma 1:12, 1 h at 37 °C; NNKC9/41 0–25 μM, histones 0–25 μg/mL; three donors (Fig 4C). The protocol:
Figure 4 Comparison of different methods to measure pro-FSAP activation in plasma: (A) hirudin plasma (1:12 dilution) was incubated with histones (0–25 μg/mL), NNKC9/41, or its Ser–Ser linear control (0–25 μM) and the fluorogenic substrate turnover (Ac–Ala–Lys–Nle–Arg–AMC) was monitored. (B) From the same experiment as in (A) after 1 h incubation at 37 °C, samples were captured on anti-FSAP coated wells and the conversion of added pro-uPA to active uPA was measured by determining the turnover of the chromogenic substrate PNAPEP1344 (25 μM). (C) From the same experiment as in (A) after 1 h incubation at 37 °C, samples were captured on anti-FSAP coated wells and α2-antiplasmin antibody was used to detect the formation of FSAP−α2-antiplasmin complexes. […] In (F), the samples with MA-FSAP-570 were not analyzed since this antibody would interfere in the sandwich ELISA. […]
Human citrate plasma (0.38% w/v) or hirudin plasma (25 μg/mL Lepirudin) was obtained from five healthy donors. […] Hydrolysis of the fluorogenic substrates was measured using a Synergy HI plate reader with excitation at 320 nm and emission at 460 nm at 37 °C for 60 min. The maximal velocity was calculated from the linear part of the progress curve. […]

Another assay concerns uPA. Kind of assay: Specificity: uPA. It counts as biochemical. The following applies: uPA 20 nM; peptide 0-50 μM; PNAPEP 1344 (Fig S7). The protocol:
Fig S7. […]
µM). Pro-uPA (100 nM) and uPA (20 nM) with PNAPEP 1344 (250 µM). Factor X (50 […]
(§1) Bend, IN, USA) except plasminogen and FSAP, which were isolated in house; and pro-uPA was from Grünenthal (Stolberg, Germany). All chromogenic substrates were from Hyphen Biomed (Neuville Sur Oise, France). Experiments were carried out in TBS with Tween-20 (0.1 % wt/ vol) BSA (0.3% wt/vol) and CaCl2 (2 mM). Absorbance at 405 nm was measured over time and the enzyme activity is depicted was measured in duplicates (mean + or -range) and similar results were obtained in 3

Another assay concerns factor X. Kind of assay: Specificity towards pro-enzymes: factor X. It counts as biochemical. The following applies: Factor X 50 nM; peptide 0-50 μM; S-2765 (Fig S7). As to the method:
Fig S7. […]
as §1

In assay [2] the test system is recombinant serine protease domain (SPD) of FSAP. Kind of assay: Activity of recombinant serine protease domain of FSAP. It counts as biochemical, human. The following applies: rSPD 20 nM; peptide 0-50 μM; S2288 250 µM (Fig S7A). As to the method:
Fig S7. […]
as §1, with “nM) and Factor Xa (20 nM) with S-2765 (250 µM). pro-FSAP (20 nM) and recombinant serine protease domain (rSPD) (20 nM) with S2288 (250 µM). All pro-enzymes and enzyme were obtained from Enzyme Research Laboratories (South Bend,” for “Bend,”

Entries after “also recorded” stand apart in the source; their conditions may differ.

The values below come from PMC9486805, “Identification of a Phage Display-Derived Peptide Interacting with the N-Terminal Region of Factor VII Activating Protease (FSAP) Enables Characterization of Zymogen Activation” (ACS Chemical Biology, 2022).

As for CRGAMWMYKRC [NNKC9/41], in assay [1], the “peptide binding to light chain/SPD” value is “very low binding”. Further, the “FSAP–alpha2-antiplasmin complex formation” value on pro-FSAP in human plasma is “weaker than histones; also recorded: concentration-dependent effect”. Further, the effect on activity result in the assay on uPA and in the assay with factor X was “did not influence the activity” in each case. Also, the “effect on activity of recombinant SPD” value in assay [2] is given as “did not alter the activity”.
